This is an account of results in ChEMBL document CHEMBL1201862, “PubChem BioAssay data set” (2004).

Some test systems named below: A549; ACHN; COLO 205; EKVX; HCT-116; HCT-15; HOP-62; HOP-92; Hs-578T; IGROV-1; K562; M14; MCF7; MOLT-4; NCI/ADR-RES; OVCAR-5; RXF 393; SK-OV-3; TK-10; UACC-257.
Holding throughout (assay): inhibition of tumour cell growth, NCI panel, 48 h

Molecules are shown by their SMILES.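 Cultured in 96-well plates, cells were exposed to test compound for 48 hours across five concentrations. Abbreviation: GI50, concentration required for 50% inhibition of growth.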 Calls of active or inactive are those of the source. Rule as the data show it: active = GI50 up to about 1.1 µM and inactive = higher. Bounds are passed on as bounds.

Take `CC(=O)Oc1ccc2c(c1)oc1c3ccc(OC(C)=O)cc3n(C)c(=O)c21`: the GI50 in the assay on A549 is 35.1 µM (inactive); with ACHN, 37.4 µM (inactive); with COLO 205, 21.6 µM (inactive); with EKVX, 13.2 µM (inactive); in the assay with HCT-116 it was 20.9 µM (inactive); in the assay on HCT-15, 36.5 µM. For the same molecule, the GI50 with HOP-62 is 34.9 µM (inactive); in the assay with HOP-92, 28.7 µM (inactive); with Hs-578T, 4.48 µM (inactive); with IGROV-1, 29.9 µM (inactive); with K562, 30.5 µM (inactive); with M14, 10.3 µM (inactive). For the same molecule, the GI50 in the assay with MCF7 was 35.6 µM (inactive); with MOLT-4, 25.1 µM (inactive); in the assay with NCI/ADR-RES, 15.7 µM (inactive); in the assay with OVCAR-5, 51.9 µM (inactive); in the assay on RXF 393, 38.7 µM (inactive); in the assay with SK-OV-3, 14.8 µM (inactive). The GI50 is 70.8 µM (inactive) in the assay on TK-10 and 21.9 µM (inactive) in the assay on UACC-257.
For `Cc1cnccc1/N=N/c1ccc(N(C)C)cc1`, the GI50 in the assay with A549 was 30.7 µM (inactive); in the assay with ACHN it was 20.5 µM (inactive); in the assay on COLO 205 it was 11.9 µM (inactive); in the assay on EKVX, 9.55 µM (inactive); in the assay with HCT-116 it was 22.9 µM (inactive); in the assay on HCT-15, 15.1 µM. In addition, the GI50 in the assay with HOP-62 is 56.5 µM (inactive); in the assay with HOP-92, 9.38 µM (inactive); in the assay with Hs-578T it was 29.9 µM (inactive); with IGROV-1, 7.8 µM (inactive); in the assay on K562, 18.6 µM (inactive); in the assay with M14 it was 41.5 µM (inactive). For the same molecule, the GI50 with MCF7 is 14.4 µM (inactive); with MOLT-4, 31.3 µM (inactive); in the assay on NCI/ADR-RES, 13 µM (inactive); in the assay on OVCAR-5, 28 µM (inactive); with RXF 393, 14.9 µM (inactive); in the assay with SK-OV-3 it was 16.7 µM (inactive). The results for the GI50 in the assay with TK-10 and in the assay with UACC-257 were 17.2 µM (inactive) and 22.3 µM (inactive), respectively.
With `Cc1cc2oc(C)c(S(=O)(=O)NC(=O)Nc3ccc(Cl)cc3)c(=O)c2c(=O)o1`, the GI50 with A549 was > 100 µM (inactive); in the assay on ACHN, 59.4 µM (inactive); in the assay on COLO 205, > 100 µM (inactive); with EKVX, > 100 µM (inactive); in the assay on HCT-116, > 100 µM (inactive); in the assay on HCT-15 it was 23 µM. In addition, the GI50 with HOP-62, with HOP-92, with Hs-578T, with IGROV-1, in the assay with K562 and with M14 was > 100 µM (inactive) in each case. In addition, the GI50 with MCF7, in the assay on MOLT-4, with NCI/ADR-RES, in the assay with OVCAR-5, in the assay on RXF 393 and with SK-OV-3 was > 100 µM (inactive) throughout. The GI50 with TK-10 and in the assay on UACC-257 was > 100 µM (inactive) each time.
Take `CCOc1cc(-c2nc3ccccn3c2/N=C/c2cc([N+](=O)[O-])cc([N+](=O)[O-])c2O)ccc1O`: the GI50 in the assay on A549 was > 100 µM (inactive); in the assay on ACHN, > 100 µM (inactive); in the assay on COLO 205 it was > 100 µM (inactive); in the assay on EKVX it was > 100 µM (inactive); in the assay with HCT-116, > 100 µM (inactive); in the assay with HCT-15, > 100 µM. For the same molecule, the GI50 with HOP-62, in the assay on HOP-92, in the assay on Hs-578T, in the assay with IGROV-1, in the assay on K562 and with M14 was > 100 µM (inactive) each time. Further, the GI50 in the assay with MCF7, in the assay with MOLT-4, in the assay on NCI/ADR-RES, in the assay with OVCAR-5, in the assay on RXF 393 and in the assay with SK-OV-3 was > 100 µM (inactive) in each case. Moreover, the GI50 with TK-10 and in the assay on UACC-257 was > 100 µM (inactive) each time.
Regarding `O=C(O)C1C2C=CC(O2)C1C(=O)NCc1ccccn1` (stereo not given), the GI50 in the assay with A549 is > 100 µM (inactive); in the assay with ACHN it was > 100 µM (inactive); in the assay with COLO 205, > 100 µM (inactive); in the assay with EKVX, > 100 µM (inactive); in the assay with HCT-116, > 100 µM (inactive); in the assay on HCT-15, > 100 µM. The GI50 in the assay with HOP-62, in the assay on HOP-92, in the assay on Hs-578T, in the assay on IGROV-1, in the assay with K562 and in the assay with M14 was > 100 µM (inactive) throughout. In addition, the GI50 in the assay on MCF7 is > 100 µM (inactive); in the assay on MOLT-4, > 100 µM (inactive); with NCI/ADR-RES, > 100 µM (inactive); with OVCAR-5 it was > 100 µM (inactive); in the assay with RXF 393 it was 44.5 µM (inactive); with SK-OV-3 it was > 100 µM (inactive). The GI50 in the assay with TK-10 and with UACC-257 was > 100 µM (inactive) in each case.
Turning to `CCC(=O)OCN1C(=O)C=CC1=O`, the GI50 in the assay with A549 is 18.7 µM (inactive); in the assay on ACHN, 8.2 µM (inactive); in the assay on COLO 205 it was 4.28 µM (inactive); with EKVX it was 19.8 µM (inactive); in the assay on HCT-116, 16.2 µM (inactive); in the assay on HCT-15, 22.9 µM. For the same molecule, the GI50 was 17.8 µM (inactive) in the assay on HOP-62; 15.2 µM (inactive) with HOP-92; 10.1 µM (inactive) in the assay with Hs-578T; 18.4 µM (inactive) with IGROV-1; 3.26 µM (inactive) with K562; 18.3 µM (inactive) in the assay on M14. For the same molecule, the GI50 in the assay on MCF7 was 20.1 µM (inactive); in the assay on MOLT-4, 2.3 µM (inactive); in the assay on NCI/ADR-RES, 24 µM (inactive); in the assay on OVCAR-5, 18.2 µM (inactive); in the assay with RXF 393, 16.2 µM (inactive); in the assay with SK-OV-3, > 43.1 µM (inactive). Besides, the GI50 with TK-10 was 6.21 µM (inactive); with UACC-257, 9.06 µM (inactive).
In the case of `CCNc1nc(N)c(C(=O)c2ccc(Cl)cc2)s1`, the GI50 with A549 is 20.7 µM (inactive); with ACHN, 23.7 µM (inactive); with COLO 205 it was 18.9 µM (inactive); with EKVX, 4.52 µM (inactive); with HCT-116 it was 27.9 µM (inactive); with HCT-15, 26.9 µM. Besides, the GI50 with HOP-62 is 44.2 µM (inactive); with HOP-92 it was > 100 µM (inactive); in the assay with Hs-578T, 4.86 µM (inactive); in the assay with IGROV-1, 25.1 µM (inactive); in the assay on K562 it was 29.3 µM (inactive); in the assay with M14 it was 44.6 µM (inactive). The GI50 with MCF7 was 28.6 µM (inactive); in the assay with MOLT-4 it was 27.4 µM (inactive); in the assay with NCI/ADR-RES, 42.1 µM (inactive); in the assay on OVCAR-5, 32.7 µM (inactive); with RXF 393 it was 22 µM (inactive); with SK-OV-3, 29.9 µM (inactive). Also, the GI50 with TK-10 was 14.3 µM (inactive); in the assay on UACC-257 it was 71 µM (inactive).
Turning to `C(=C\c1ccco1)/c1cccc(/C=C/c2ccco2)n1`, the GI50 is > 50 µM (inactive) with A549; > 50 µM (inactive) with ACHN; > 50 µM (inactive) in the assay on COLO 205; > 50 µM (inactive) in the assay on EKVX; > 50 µM (inactive) with HCT-116; > 50 µM in the assay on HCT-15. Further, the GI50 in the assay with HOP-62, in the assay with HOP-92, with Hs-578T, in the assay on IGROV-1, with K562 and in the assay on M14 was > 50 µM (inactive) throughout. Besides, the GI50 in the assay on MCF7 was 0.283 µM (active); in the assay on MOLT-4, > 50 µM (inactive); with NCI/ADR-RES it was > 50 µM (inactive); with OVCAR-5, > 50 µM (inactive); in the assay on RXF 393, > 50 µM (inactive); with SK-OV-3, > 50 µM (inactive). Moreover, the GI50 with TK-10 and in the assay on UACC-257 was > 50 µM (inactive) throughout.
On to `O=C1C(Cl)=C(OCCCCl)C(=O)c2c(O)ccc(O)c21`, for which the GI50 in the assay with A549 was 6.4 µM (inactive); in the assay with ACHN, 5.07 µM (inactive); in the assay with COLO 205, 1.53 µM (inactive); with EKVX, 17.7 µM (inactive); in the assay on HCT-116, 1.85 µM (inactive); in the assay with HCT-15, 1.84 µM. In addition, the GI50 with HOP-62 is 8.99 µM (inactive); with HOP-92, 1.78 µM (inactive); with Hs-578T, 4.91 µM (inactive); in the assay on IGROV-1, 4.18 µM (inactive); in the assay with K562, 0.401 µM (active); in the assay with M14, 1.43 µM (inactive). In addition, the GI50 was 1.55 µM (inactive) in the assay on MCF7; 0.189 µM (active) in the assay on MOLT-4; 3.69 µM (inactive) with NCI/ADR-RES; 12.4 µM (inactive) in the assay on OVCAR-5; 2.28 µM (inactive) with RXF 393; 21.5 µM (inactive) in the assay with SK-OV-3. The GI50 in the assay on TK-10 is 3.12 µM (inactive); in the assay on UACC-257, 2.32 µM (inactive).
Take `OC1CCCCCCCCCCC1SCCCCl` (stereo not given): the GI50 in the assay with A549 is > 100 µM (inactive); with ACHN, > 100 µM (inactive); with COLO 205, > 100 µM (inactive); in the assay on EKVX it was > 100 µM (inactive); in the assay on HCT-116, > 100 µM (inactive); with HCT-15 it was > 100 µM. Further, the GI50 with HOP-62, in the assay with HOP-92, in the assay with Hs-578T, in the assay with IGROV-1, in the assay on K562 and with M14 was > 100 µM (inactive) in each case. Further, the GI50 in the assay on MCF7, in the assay on MOLT-4, in the assay on NCI/ADR-RES, in the assay with OVCAR-5, with RXF 393 and with SK-OV-3 was > 100 µM (inactive) each time. The GI50 in the assay on TK-10 and in the assay on UACC-257 was > 100 µM (inactive) throughout.
